Test results from US7297535B2, “Use of the human LRP/MVP promotor for a vector that can be induced by therapy” (Max-Delbrück-Centrum Für Molekulare Medizin, priority 2000, dated 2007).

Test system: LRP/MVP promoter
Experiment: Inducibility of LRP/MVP promoter by cytostatics (CAT expression)
Assay type: cell-based, human
Conditions: for inducibility of the human LRP/MVP gene promoter by therapy-relevant factors: general statement, no details given

SMILES | inducibility of the human LRP/MVP gene promoter by therapy-relevant factors | induction of LRP/MVP-promoter-mediated CAT expression (24 h after cytostatic administration, FIG. 2)
COc1cccc2c1C(=O)c1c(O)c3c(c(O)c1C2=O)C[C@@](O)(C(=O)CO)C[C@@H]3O[C@H]1C[C@H](N)[C@H](O)[C@H](C)O1 [adriamycin] | inductors | 
N.N.[Cl][Pt][Cl] [cisplatin] | inductors | 
O=c1[nH]cc(F)c(=O)[nH]1 [5-fluoruracil] | inductors | induced
CC[C@]1(O)C[C@H]2CN(CCc3c([nH]c4ccccc34)[C@@](C(=O)OC)(c3cc4c(cc3OC)N(C=O)[C@H]3[C@@](O)(C(=O)OC)[C@H](OC(C)=O)[C@]5(CC)C=CCN6CC[C@]43[C@@H]65)C2)C1 [vincristin] | inductors | 
